Measured values taken from article PMC3139435 (Bioorganic & medicinal chemistry letters, 2011).
Like-named read-outs stand apart in the source and are kept apart here.

Assays:
human MIF [1] = target: T1, human MIF (Homo sapiens, UniProt P14174); experiment: Mass spectrometric; details: 30 µM each of MIF and compound, one hour at 25 °C
T1 sequence (P14174 2-115 limits assumed): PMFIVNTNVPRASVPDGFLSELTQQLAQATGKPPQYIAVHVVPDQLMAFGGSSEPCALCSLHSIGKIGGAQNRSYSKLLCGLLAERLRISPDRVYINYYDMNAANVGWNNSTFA

[2] = tested on: MIF-dependent ERK1/2 phosphorylation; details: synovial fibroblasts; for effect on MIF-enhanced ERK phosphorylation (in words): co-administration with MIF, Figure 2
human MIF [3] = target: T1, human MIF; details: cited from earlier work

O=c1c2ccc(F)cc2sn1-c1ccc(Cl)cc1 [1a, 2-(4-chlorophenyl)-6-fluoro-benzo[d]isothiazol-3(2H)-one]
fraction of MIF covalently modified (human MIF [1]): ca. 3%

N#Cc1ccc(-n2sc3cc(F)ccc3c2=O)cc1 [1c]
effect on MIF-enhanced ERK phosphorylation (in words) [2]: substantial reduction of phosphorylation

O=c1c2ccc(O)cc2sn1-c1ccc(Cl)cc1 [1w]
reduction of ERK phosphorylation ([2]; at 100 nM, added with MIF for 30 minutes): 20%
reduction of ERK phosphorylation ([2]; at 1 µM, added with MIF for 30 minutes): 35%
effect on MIF-enhanced ERK phosphorylation (in words) [2]: substantial reduction of phosphorylation

Ic1cc(-c2ccccc2)ncn1 [4-IPP, 4-iodo-6-phenylpyrimidine]
fraction of the protein (MIF) covalently modified (human MIF [3]): ca. 20%

COC(=O)CC1CC(c2ccc(O)cc2)=NO1 (stereo not shown) [ISO-1, reference compound]
reduction of ERK phosphorylation ([2]; at 2 µM, racemate): 19%
